Results taken from PubChem BioAssay AID1963425 (Molecular Pharmacology Branch, DTP, NCI, 2024).

Test system: 323965-272-R-J2-PDC complex spheroid growth, % test/control
Assay: Anticancer human tumor 323965-272-R-J2-PDC patient-derived pancreatic carcinoma cell line growth inhibition [Asc]
Conditions: for IC50: curve of first compound; for viability, T/C: stronger effect = lower value
Protocol: Multicellular complex tumor spheroid response to apoptosis pathway targeting inhibitors Alrizomadlin, Pelcitoclax, and Dasminapant in combination with a variety of drugs and investigational agents in selected tumor cell lines
The MDM2 inhibitor alrizomadlin, the Bcl-2/Bcl-xL inhibitor pelcitoclax, and the IAPs inhibitor dasminapant were evaluated both individually and in combination with standard of care and investigational anticancer small molecules within a complex spheroid model of solid tumors. . Complex spheroids include a stromal component modeled by human endothelial cells (HUVEC) and fibroblasts modeled by human mesenchymal stem cells (MSCs). The concentration ranges selected for each drug and investigational agent were based upon clinically achievable concentrations if the clinical Cmax of the agent was known.
Compounds. The drugs and investigational agents: alrizomadlin (APG-115; NSC831270), pelcitoclax (APG-1252; NSC835773), dasminapant (APG-1387;NSC834197), TAK-243 (NSC785004), copanlisib (NSC809693), olaparib (NSC753686), talazoparib (NSC767125), cobimetinib (NSC 768068), eltanexor (KPT-8602, NSC 794443), abemaciclib (NSC 768073), sotorasib (NSC818433), adagrasib (NSC 831453), MRTX-1133 (NSC 836407), Iadademestat (ORY1001, NSC 806812), and RMC-4630 (NSC839698), were obtained from the NCI Developmental Therapeutics Program Chemical Repository. The FDA-approved anticancer drug set is available from the Developmental Therapeutics Program at https://dtp.cancer.gov/organization/dscb/obtaining/available plates.htm. […] The stock solutions were prepared in dimethyl sulfoxide (DMSO, Sigma-Aldrich, St. Louis, MO, cat. D2650) at 800-fold the tested concentration and stored at -70 degrees C prior to their use. All drugs and investigational agents were tested over a range starting from a high concentration at or near the clinical Cmax and decreasing in half-log increments. If the clinical Cmax for an agent had not been determined, the highest concentration tested was 10 microM.
The patient-derived cancer (PDC) cell lines include five colon adenocarcinomas: 186277-243-T-J2-PDC, 616215-338-R-J1-PDC, 439559-082-T-J2-PDC, 463943-066-T-J2-PDC, and 519858-162-T-J1-PDC; three pancreatic carcinomas: 323965-272-R-J2-PDC, 521955-158-R6-J3-PDC, and 521955-158-R2-J5-PDC; two uterine sarcomas: 327498-152-R-J2-PDC and 993429-296-R-J1-PDC; two rhabdomyosarcomas: 755483-174-R-J1-PDC and 772245-204-R-J1-PDC; two soft tissue sarcomas: 126254-015-R-J1-PDC and 494315-158-R-J1-PDC; two malignant fibrous histiocytomas: 317291-083-R-J1-PDC and 596521-263-R-J1-PDC; two breast carcinomas: 171881-019-R-J1-PDC and 885512-296-R-J2-PDC; and one ovarian carcinoma: 6556581-035-R-J-PDC were obtained from the NCI PDMR, (https://pdmr.cancer.gov). The established cell lines HSSY-2 synovial sarcoma (RRID:CVCL 8719), SYO-1 synovial sarcoma (RRID:CVCL_7146), MPNST malignant peripheral neural sheath tumor were obtained from the Sloan Kettering Institute. The following established cell lines were purchased from the American Type Culture Collection (ATCC, Manassas, VA), Sor the received from the NCI repository:, PANC-1 pancreatic carcinoma (CRL-1469, RRID:CVCL_0480), OVCAR-5 ovarian carcinoma (RRID:CVCL_1628), OVCAR-8 ovarian carcinoma (RRID:CVCL_1629), , MCF-7 breast carcinoma (CRL-12584, RRID:CVCL_0031), MDA-MB-231 breast carcinoma (CRL-12532, RRID:CVCL_0062), NCI-H1876 small cell lung carcinoma (CRL-5902, RRID:CVCL_1503), NCI-H510A small cell lung carcinoma (HTB-184, RRID:CVCL_1565), NCI-H1417 (CRL-5869, RRID:CVCL_1469), and NCI-H196 small cell lung carcinoma (CRL-5823, RRID:CVCL_1509). Dr. Peter Houghton (Greehey Children's Cancer Research Institute, University of Texas Health Science Center, San Antonio, TX) provided Rh-18 rhabdomyosarcoma (RRID:CVCL_1659). Pooled donor human umbilical vein endothelial cells (HUVEC, Lonza, cat. CC-2519) and human mesenchymal stem cells (hMSC, Lonza, cat. PT-2501) were purchased from Lonza (Walkersville, MD).
Cell Culture. […]

[1] = second compound 0.00949 µM, first compound 0.0316 µM
[2] = second compound 0.00949 µM, first compound 0.1 µM
[3] = second compound 0.03 µM, first compound 0.0316 µM
[4] = second compound 0.03 µM, first compound 0.1 µM
[5] = second compound 0.0949 µM, first compound 0.0316 µM
[6] = second compound 0.0949 µM, first compound 0.1 µM
[7] = second compound 0.3 µM, first compound 0.0316 µM
[8] = second compound 0.3 µM, first compound 0.1 µM
[9] = second compound 0.949 µM, first compound 0.0316 µM
[10] = second compound 0.949 µM, first compound 0.1 µM
[11] = second compound 3 µM, first compound 0.0316 µM
[12] = second compound 3 µM, first compound 0.1 µM
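Also: compound exposure lasted 7 days starting three days after spheroid seeding.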
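For viability, T/C in this document: 100% = DMSO vehicle control wells with viability set relative to vehicle.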

Cn1ncnc1[C@H]1c2n[nH]c(=O)c3cc(F)cc(c23)N[C@@H]1c1ccc(F)cc1 + CCN1C(C(=O)NC23CCC(C(=O)O)(CC2)CC3)C(c2cccc(Cl)c2F)C2(C(=O)Nc3cc(Cl)ccc32)C12CCCCC2
IC50 (second compound 0.00949 µM): > 0.1 µM
IC50 (second compound 0.03 µM): > 0.1 µM
IC50 (second compound 0.0949 µM): > 0.1 µM
IC50 (second compound 0.3 µM): > 0.1 µM
IC50 (second compound 0.949 µM): > 0.1 µM
IC50 (second compound 3 µM): > 0.1 µM
viability, T/C (second compound 0.00949 µM, first compound 0.000316 µM): 114%
viability, T/C (second compound 0.00949 µM, first compound 0.001 µM): 104%
viability, T/C (second compound 0.00949 µM, first compound 0.00316 µM): 108%
viability, T/C (second compound 0.00949 µM, first compound 0.01 µM): 113%
viability, T/C [1]: 112%
viability, T/C [2]: 98.3%
viability, T/C (second compound 0.03 µM, first compound 0.000316 µM): 124%
viability, T/C (second compound 0.03 µM, first compound 0.001 µM): 116%
viability, T/C (second compound 0.03 µM, first compound 0.00316 µM): 122%
viability, T/C (second compound 0.03 µM, first compound 0.01 µM): 105%
viability, T/C [3]: 116%
viability, T/C [4]: 108%
viability, T/C (second compound 0.0949 µM, first compound 0.000316 µM): 123%
viability, T/C (second compound 0.0949 µM, first compound 0.001 µM): 116%
viability, T/C (second compound 0.0949 µM, first compound 0.00316 µM): 104%
viability, T/C (second compound 0.0949 µM, first compound 0.01 µM): 96.6%
viability, T/C [5]: 103%
viability, T/C [6]: 102%
viability, T/C (second compound 0.3 µM, first compound 0.000316 µM): 115%
viability, T/C (second compound 0.3 µM, first compound 0.001 µM): 118%
viability, T/C (second compound 0.3 µM, first compound 0.00316 µM): 125%
viability, T/C (second compound 0.3 µM, first compound 0.01 µM): 108%
viability, T/C [7]: 114%
viability, T/C [8]: 77.7%
viability, T/C (second compound 0.949 µM, first compound 0.000316 µM): 118%
viability, T/C (second compound 0.949 µM, first compound 0.001 µM): 114%
viability, T/C (second compound 0.949 µM, first compound 0.00316 µM): 110%
viability, T/C (second compound 0.949 µM, first compound 0.01 µM): 113%
viability, T/C [9]: 117%
viability, T/C [10]: 93.1%
viability, T/C (second compound 3 µM, first compound 0.000316 µM): 118%
viability, T/C (second compound 3 µM, first compound 0.001 µM): 109%
viability, T/C (second compound 3 µM, first compound 0.00316 µM): 96%
viability, T/C (second compound 3 µM, first compound 0.01 µM): 105%
viability, T/C [11]: 96.9%
viability, T/C [12]: 85.8%

O=C(c1cc(Cc2n[nH]c(=O)c3ccccc23)ccc1F)N1CCN(C(=O)C2CC2)CC1 + CCN1C(C(=O)NC23CCC(C(=O)O)(CC2)CC3)C(c2cccc(Cl)c2F)C2(C(=O)Nc3cc(Cl)ccc32)C12CCCCC2
IC50 (second compound 0.00949 µM): > 10 µM
IC50 (second compound 0.03 µM): > 10 µM
IC50 (second compound 0.0949 µM): > 10 µM
IC50 (second compound 0.3 µM): > 10 µM
IC50 (second compound 0.949 µM): > 10 µM
IC50 (second compound 3 µM): > 10 µM
viability, T/C [1]: 106%
viability, T/C [2]: 107%
viability, T/C (second compound 0.00949 µM, first compound 0.316 µM): 113%
viability, T/C (second compound 0.00949 µM, first compound 1 µM): 110%
viability, T/C (second compound 0.00949 µM, first compound 3.16 µM): 110%
viability, T/C (second compound 0.00949 µM, first compound 10 µM): 91.5%
viability, T/C [3]: 103%
viability, T/C [4]: 111%
viability, T/C (second compound 0.03 µM, first compound 0.316 µM): 106%
viability, T/C (second compound 0.03 µM, first compound 1 µM): 106%
viability, T/C (second compound 0.03 µM, first compound 3.16 µM): 107%
viability, T/C (second compound 0.03 µM, first compound 10 µM): 95.8%
viability, T/C [5]: 113%
viability, T/C [6]: 107%
viability, T/C (second compound 0.0949 µM, first compound 0.316 µM): 111%
viability, T/C (second compound 0.0949 µM, first compound 1 µM): 108%
viability, T/C (second compound 0.0949 µM, first compound 3.16 µM): 116%
viability, T/C (second compound 0.0949 µM, first compound 10 µM): 100%
viability, T/C [7]: 116%
viability, T/C [8]: 107%
viability, T/C (second compound 0.3 µM, first compound 0.316 µM): 117%
viability, T/C (second compound 0.3 µM, first compound 1 µM): 117%
viability, T/C (second compound 0.3 µM, first compound 3.16 µM): 103%
viability, T/C (second compound 0.3 µM, first compound 10 µM): 97.5%
viability, T/C [9]: 112%
viability, T/C [10]: 106%
viability, T/C (second compound 0.949 µM, first compound 0.316 µM): 122%
viability, T/C (second compound 0.949 µM, first compound 1 µM): 95.4%
viability, T/C (second compound 0.949 µM, first compound 3.16 µM): 109%
viability, T/C (second compound 0.949 µM, first compound 10 µM): 85.1%
viability, T/C [11]: 102%
viability, T/C [12]: 105%
viability, T/C (second compound 3 µM, first compound 0.316 µM): 107%
viability, T/C (second compound 3 µM, first compound 1 µM): 105%
viability, T/C (second compound 3 µM, first compound 3.16 µM): 92.4%
viability, T/C (second compound 3 µM, first compound 10 µM): 93.3%
